Test results taken from US20180370927A1, “MICROBIOCIDAL OXADIAZOLE DERIVATIVES” (SYNGENTA PARTICIPATIONS AG, priority 2015, published 2018).

Tests used:
[1] = system: Puccinia recondita f. Sp. Tritici; assay: Puccinia recondita f. sp. tritici / wheat / leaf disc curative (brown rust); format: in vivo; conditions: foliar, 200 ppm in the applied formulation, wheat leaf segments, curative (applied 1 day after inoculation), assessed 6 to 8 days after application, read-out: disease control compared to untreated control leaf disks
Method in brief: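 Wheat cv. Kanzler leaf segments on agar were inoculated with spores, kept dark at 19° C, 75% RH, then sprayed with diluted formulated compound 1 day after inoculation (curative). Incubation continued at 19° C, 75% RH, 12 h light/12 h dark, with percent disease control versus untreated scored 6 to 8 days after application.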

[2] = system: Puccinia recondita f. Sp. Tritici; assay: Puccinia recondita f. sp. tritici / wheat / leaf disc preventative (brown rust); format: in vivo; conditions: foliar, 200 ppm in the applied formulation, wheat leaf segments, preventative, assessed 7 to 9 days after application, read-out: disease control compared to untreated control leaf disks
Method in brief: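 Wheat cv. Kanzler leaf segments on agar sprayed with formulated compound in water, inoculated with rust spores 1 day later. Incubated at 19° C, 75% rh, 12 h light/12 h dark; percent disease control versus untreated scored 7 to 9 days after application; tested at 200 ppm.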

[3] = system: Glomerella lacenarium (Colletotrichum lacenarium); assay: Glomerella lacenarium (Colletotrichum lacenarium) liquid culture / cucumber / preventative (anthracnose); format: cell-based; conditions: 20 ppm in the applied formulation, liquid culture in PDB, 24° C., 3 to 4 days after application, read-out: disease control (inhibition of growth, photometric) compared to untreated control
Method in brief: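 Cryostored conidia in potato dextrose broth added to DMSO compound solution in microtiter plates, incubated at 24° C. Growth inhibition read photometrically 3 to 4 days after application, as percent control versus untreated check; compounds tested at 20 ppm.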

Phakopsora pachyrhizi = Phakopsora pachyrhizi / soybean / leaf disc preventative (Asian soybean rust); format: in vivo; conditions: foliar, 200 ppm in the applied formulation, soybean leaf disks, assessed 12 to 14 days after application, read-out: disease control compared to untreated control leaf disks
Method in brief: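 Soybean leaf discs on water agar were sprayed with formulated compound diluted in water, then inoculated one day later with spore suspension on the lower leaf surface. Held 24-36 h dark at 20° C., 75% RH, then 12 h light/day; percent disease control versus untreated scored 12 to 14 days after application.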

CON(C)C(=O)C(=O)N(C)Cc1ccc(-c2noc(C(F)(F)F)n2)cc1 [Compound 4.104, N′-methoxy-N,N′-dimethyl-N-[[4-[5-- (trifluoromethyl)-1,2,4-oxadiazol-3-yl]phenyl]methyl] oxamide]
≥ 80%: pest or weed control at 200 ppm [1] | pest or weed control at 200 ppm [2] | inhibition at 20 ppm [3] | pest or weed control at 200 ppm (Phakopsora pachyrhizi)

CCN(Cc1ccc(-c2noc(C(F)(F)F)n2)cc1)C(=O)C(=O)C1CC1 [Compound 1.93, 2-cyclopropyl-N-ethyl-2-oxo-N-[[4-[5-(trifluoromethyl)-1,2,4-oxadiazol-3-yl]phenyl]methyl]acetamide]
≥ 80%: pest or weed control at 200 ppm [1] | pest or weed control at 200 ppm [2] | inhibition at 20 ppm [3] | pest or weed control at 200 ppm (Phakopsora pachyrhizi)

CN(C)C(=O)C(=O)NCc1ccc(-c2noc(C(F)(F)F)n2)c(F)c1 [Compound 4.93, N-[[3-fluoro-4-[5-(trifluoromethyl)-1,2,4-oxadiazol-3-yl]phenyl]methyl]-N',N'-dimethyl-oxamide]
≥ 80%: pest or weed control at 200 ppm [1] | pest or weed control at 200 ppm [2] | inhibition at 20 ppm [3] | pest or weed control at 200 ppm (Phakopsora pachyrhizi)

CC(C)(C)C(=O)C(=O)NCc1ccc(-c2noc(C(F)(F)F)n2)cc1 [Compound 1.52, 3,3-dimethyl-2-oxo-N-[[4-[5-(trifluoromethyl)-1,2,4-oxadiazol-3-yl]phenyl]methyl]butanamide]
≥ 80%: pest or weed control at 200 ppm [1] | pest or weed control at 200 ppm [2] | inhibition at 20 ppm [3] | pest or weed control at 200 ppm (Phakopsora pachyrhizi)

CCN(Cc1ccc(-c2noc(C(F)(F)F)n2)cc1)C(=O)C(=O)NC [Compound 4.101, N′-ethyl-N-methyl-N′-[[4-[5-(trifluoromethyl)-1,2,4-oxadiazol-3-yl]phenyl]methyl] oxamide]
≥ 80%: pest or weed control at 200 ppm [1] | pest or weed control at 200 ppm [2] | inhibition at 20 ppm [3] | pest or weed control at 200 ppm (Phakopsora pachyrhizi)

CON(Cc1ccc(-c2noc(C(F)(F)F)n2)cc1)C(=O)C(=O)c1ccco1 [Compound 1.90, 2-(2-furyl)-N-methoxy-2-oxo-N-[[4-[5-(trifluoromethyl)-1,2,4-oxadiazol-3-yl]phenyl]methyl]acetamide]
≥ 80%: pest or weed control at 200 ppm [1] | pest or weed control at 200 ppm [2] | inhibition at 20 ppm [3] | pest or weed control at 200 ppm (Phakopsora pachyrhizi)

O=C(NCc1ccc(-c2noc(C(F)(F)F)n2)cc1F)C(=O)c1ccco1 [Compound 1.77, N-[[2-fluoro-4-[5-(trifluoromethyl)-1,2,4-oxadiazol-3-yl]phenyl]methyl]-2-(2-furyl)-2-oxo-acetamide]
≥ 80%: pest or weed control at 200 ppm [1] | pest or weed control at 200 ppm [2] | inhibition at 20 ppm [3] | pest or weed control at 200 ppm (Phakopsora pachyrhizi)

CN(C)C(=O)C(=O)NCc1c(F)cc(-c2noc(C(F)(F)F)n2)cc1F [Compound 4.98, N-[[2,6-difluoro-4-[5-(trifluoromethyl)-1,2,4-oxadiazol-3-yl]phenyl]methyl]-N′,N′-dimethyl-oxamide]
≥ 80%: pest or weed control at 200 ppm [1] | pest or weed control at 200 ppm [2] | inhibition at 20 ppm [3] | pest or weed control at 200 ppm (Phakopsora pachyrhizi)

CCON(Cc1ccc(-c2noc(C(F)(F)F)n2)cc1)C(=O)C(=O)CC [Compound 1.29, N-ethoxy-2-oxo-N-[[4-[5-(trifluoromethyl)-1,2,4-oxadiazol-3-yl]phenyl]methyl]butanamide]
≥ 80%: pest or weed control at 200 ppm [1] | pest or weed control at 200 ppm [2] | inhibition at 20 ppm [3] | pest or weed control at 200 ppm (Phakopsora pachyrhizi)

COCCN(Cc1ccc(-c2noc(C(F)(F)F)n2)cc1)C(=O)C(C)=O [Compound 1.10, N-(2-methoxyethyl)-2-oxo-N-[[4-[5-(trifluoromethyl)-1,2,4-oxadiazol-3-yl]phenyl]methyl]propanamide]
≥ 80%: pest or weed control at 200 ppm [1] | pest or weed control at 200 ppm [2] | inhibition at 20 ppm [3] | pest or weed control at 200 ppm (Phakopsora pachyrhizi)

CONC(=O)C(=O)NCc1ccc(-c2noc(C(F)(F)F)n2)cc1 [Compound 4.58, N′-methoxy-N-[[4-[5-(trifluoromethyl)-1,2,4-oxadiazol-3-yl]phenyl]methyl] oxamide]
≥ 80%: pest or weed control at 200 ppm [1] | pest or weed control at 200 ppm [2] | inhibition at 20 ppm [3] | pest or weed control at 200 ppm (Phakopsora pachyrhizi)

CC(C)CC(=O)C(=O)NCc1ccc(-c2noc(C(F)(F)F)n2)cc1 [Compound 1.50, 4-methyl-2-oxo-N-[[4-[5-(trifluoromethyl)-1,2,4-oxadiazol-3-yl]phenyl]methyl]pentanamide]
≥ 80%: pest or weed control at 200 ppm [1] | pest or weed control at 200 ppm [2] | inhibition at 20 ppm [3] | pest or weed control at 200 ppm (Phakopsora pachyrhizi)

CN(C)C(=O)C(=O)NCc1ccc(-c2noc(C(F)(F)F)n2)cc1Cl [Compound 4.96, N-[[2-chloro-4-[5-(trifluoromethyl)-1,2,4-oxadiazol-3-yl]phenyl]methyl]-N′,N′-dimethyl-oxamide]
≥ 80%: pest or weed control at 200 ppm [1] | pest or weed control at 200 ppm [2] | inhibition at 20 ppm [3] | pest or weed control at 200 ppm (Phakopsora pachyrhizi)

CC(C)C(=O)C(=O)N(Cc1ccc(-c2noc(C(F)(F)F)n2)cc1)C1CC1 [Compound 1.97, N-cyclopropyl-3-methyl-2-oxo-N-[[4-[5-(trifluoromethyl)-1,2,4-oxadiazol-3-yl]phenyl]methyl]butanamide]
≥ 80%: pest or weed control at 200 ppm [1] | pest or weed control at 200 ppm [2] | inhibition at 20 ppm [3] | pest or weed control at 200 ppm (Phakopsora pachyrhizi)

CC(=O)C(=O)NCc1c(F)cc(-c2noc(C(F)(F)F)n2)cc1F [Compound 1.87, N-[[2,6-difluoro-4-[5-(trifluoromethyl)-1,2,4-oxadiazol-3-yl]phenyl]methyl]-2-oxo-propanamide]
≥ 80%: pest or weed control at 200 ppm [1] | pest or weed control at 200 ppm [2] | inhibition at 20 ppm [3] | pest or weed control at 200 ppm (Phakopsora pachyrhizi)

CCC(=O)C(=O)NCc1ccc(-c2noc(C(F)(F)F)n2)cc1 [Compound 1.53, 2-oxo-N-[[4-[5-(trifluoromethyl)-1,2,4-oxadiazol-3-yl]phenyl]methyl]butanamide]
≥ 80%: pest or weed control at 200 ppm [1] | pest or weed control at 200 ppm [2] | inhibition at 20 ppm [3] | pest or weed control at 200 ppm (Phakopsora pachyrhizi)

Cc1cc(-c2noc(C(F)(F)F)n2)ccc1CNC(=O)C(=O)N(C)C [Compound 4.97, N′,N′-dimethyl-N-[[2-methyl-4-[5-(trifluoromethyl)-1,2,4-oxadiazol-3-yl]phenyl]methyl] oxamide]
≥ 80%: pest or weed control at 200 ppm [1] | pest or weed control at 200 ppm [2] | inhibition at 20 ppm [3] | pest or weed control at 200 ppm (Phakopsora pachyrhizi)

CCCC(=O)C(=O)N(Cc1ccc(-c2noc(C(F)(F)F)n2)cc1)OC [Compound 1.3, N-methoxy-2-oxo-N-[[4-[5-(trifluoromethyl)-1,2,4-oxadiazol-3-yl]phenyl]methyl]pentanamide]
≥ 80%: pest or weed control at 200 ppm [1] | pest or weed control at 200 ppm [2] | inhibition at 20 ppm [3] | pest or weed control at 200 ppm (Phakopsora pachyrhizi)

CON(Cc1ccc(-c2noc(C(F)(F)F)n2)cc1)C(=O)C(C)=O [Compound 1.36, N-methoxy-2-oxo-N-[[4-[5-(trifluoromethyl)-1,2,4-oxadiazol-3-yl]phenyl]methyl]propanamide]
≥ 80%: pest or weed control at 200 ppm [1] | pest or weed control at 200 ppm [2] | inhibition at 20 ppm [3] | pest or weed control at 200 ppm (Phakopsora pachyrhizi)
